According to ChEMBL document CHEMBL1201862, “PubChem BioAssay data set” (2004):
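Where inhibition never reached the appropriate level, the endpoint shown equals the highest concentration tested. Otherwise, values were interpolated linearly from a five-concentration, 48-hour dose response in 96-well plates. The concentration for 50% growth inhibition is given as GI50.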 Active and inactive are the calls of the source. Cut-off read from the data, not from the text of the source: active = GI50 up to about 1.1 µM and inactive = higher.

Experiments:
Assay in all cases: DTP human tumour cell line panel, 48 h
786-0 = test system: 786-0
A498 = test system: A498
A549 = test system: A549
ACHN = test system: ACHN
CAKI-1 = test system: CAKI-1
CCRF-CEM = test system: CCRF-CEM
COLO 205 = test system: COLO 205
DLD-1 = test system: DLD-1
DMS-114 = test system: DMS-114
DMS-273 = test system: DMS-273
DU-145 = test system: DU-145
EKVX = test system: EKVX
HCC 2998 = test system: HCC 2998
HCT-116 = test system: HCT-116
HCT-15 = test system: HCT-15
HL-60 = test system: HL-60
HOP-18 = test system: HOP-18
HOP-92 = test system: HOP-92
HT-29 = test system: HT-29
Hs-578T = test system: Hs-578T
IGROV-1 = test system: IGROV-1
K562 = test system: K562
KM-20L2 = test system: KM-20L2
KM12 = test system: KM12
LOX IMVI = test system: LOX IMVI
LXFL 529 = test system: LXFL 529
M14 = test system: M14
M19-MEL = test system: M19-MEL
MCF7 = test system: MCF7
MDA-MB-231 = test system: MDA-MB-231
MDA-MB-435 = test system: MDA-MB-435
MDA-N = test system: MDA-N
MOLT-4 = test system: MOLT-4
Malme-3M = test system: Malme-3M
NCI-H226 = test system: NCI-H226
NCI-H23 = test system: NCI-H23
NCI-H460 = test system: NCI-H460
NCI-H522 = test system: NCI-H522
NCI/ADR-RES = test system: NCI/ADR-RES
OVCAR-3 = test system: OVCAR-3
OVCAR-4 = test system: OVCAR-4
OVCAR-5 = test system: OVCAR-5
OVCAR-8 = test system: OVCAR-8
PC-3 = test system: PC-3
RPMI-8226 = test system: RPMI-8226
RXF 393 = test system: RXF 393
SF-268 = test system: SF-268
SF-295 = test system: SF-295
SF-539 = test system: SF-539
SK-MEL-28 = test system: SK-MEL-28
SK-MEL-2 = test system: SK-MEL-2
SK-MEL-5 = test system: SK-MEL-5
SK-OV-3 = test system: SK-OV-3
SN12C = test system: SN12C
SNB-19 = test system: SNB-19
SNB-75 = test system: SNB-75
SNB-78 = test system: SNB-78
SR = test system: SR
SW-620 = test system: SW-620
T47D = test system: T47D
TK-10 = test system: TK-10
U-251 = test system: U-251
UACC-257 = test system: UACC-257
UACC-62 = test system: UACC-62
UO-31 = test system: UO-31
XF498 = test system: XF498
RXF 631 = test system: RXF 631
HOP-62 = test system: HOP-62

Measured: GI50

COCc1cc2c(s1)C(=O)C1=C(C2=O)C2(C=C(Br)C(=O)C(Br)=C2)CCN1
active: KM-20L2 0.184 µM | Malme-3M 0.946 µM | OVCAR-3 0.809 µM
inactive: 786-0 4.88 µM | A498 15.7 µM | A549 6.53 µM | ACHN 4.98 µM | CAKI-1 20 µM | CCRF-CEM 3.01 µM | COLO 205 3.02 µM | DLD-1 6.95 µM | DMS-114 1.73 µM | DMS-273 2.85 µM | DU-145 16 µM | EKVX 11.7 µM | HCC 2998 11.1 µM | HCT-116 1.41 µM | HL-60 2.36 µM | HOP-18 15.1 µM | HOP-92 4.94 µM | HT-29 3.09 µM | Hs-578T 9.53 µM | IGROV-1 7.24 µM | K562 2.11 µM | KM12 4.85 µM | LOX IMVI 2.19 µM | LXFL 529 2.72 µM | M14 1.68 µM | M19-MEL 1.46 µM | MCF7 10.6 µM | MDA-MB-231 3.04 µM | MDA-MB-435 1.58 µM | MDA-N 1.73 µM | MOLT-4 2.43 µM | NCI-H226 12.7 µM | NCI-H23 2.38 µM | NCI-H460 3.58 µM | NCI-H522 2.39 µM | NCI/ADR-RES 3.52 µM | OVCAR-4 1.65 µM | OVCAR-5 15.5 µM | OVCAR-8 4.15 µM | PC-3 3.15 µM | RPMI-8226 3.25 µM | RXF 393 2.4 µM | SF-268 4.86 µM | SF-295 6.05 µM | SF-539 4.65 µM | SK-MEL-28 7.67 µM | SK-MEL-2 3.55 µM | SK-MEL-5 1.71 µM | SK-OV-3 17 µM | SN12C 8.15 µM | SNB-19 18.3 µM | SNB-75 14.6 µM | SNB-78 7.59 µM | SR 1.49 µM | SW-620 3.21 µM | T47D 3.06 µM | TK-10 18.2 µM | U-251 11.4 µM | UACC-257 1.55 µM | UACC-62 1.56 µM | UO-31 12.8 µM | XF498 7.41 µM
3.13 µM: HCT-15

COc1ccc(NC(=O)CC2SC(Nc3ccc(Cl)cc3C)=NC2=O)c([N+](=O)[O-])c1 (stereo unspecified)
inactive: 786-0 > 100 µM | A498 > 100 µM | A549 > 100 µM | ACHN > 100 µM | CAKI-1 > 100 µM | CCRF-CEM > 100 µM | DLD-1 > 100 µM | DMS-114 > 100 µM | DMS-273 > 100 µM | EKVX > 100 µM | HCC 2998 > 100 µM | HCT-116 > 100 µM | HL-60 > 100 µM | HOP-92 > 100 µM | HT-29 > 100 µM | IGROV-1 > 100 µM | K562 > 100 µM | KM-20L2 > 100 µM | LOX IMVI > 100 µM | LXFL 529 > 100 µM | M14 > 100 µM | M19-MEL > 100 µM | MOLT-4 > 100 µM | Malme-3M > 100 µM | NCI-H226 > 100 µM | NCI-H23 > 100 µM | NCI-H460 > 100 µM | NCI-H522 > 100 µM | OVCAR-3 > 100 µM | OVCAR-4 > 100 µM | OVCAR-5 > 100 µM | OVCAR-8 > 100 µM | RPMI-8226 > 100 µM | RXF 393 > 100 µM | RXF 631 > 100 µM | SF-268 > 100 µM | SF-295 > 100 µM | SF-539 > 100 µM | SK-MEL-28 > 100 µM | SK-MEL-2 > 100 µM | SK-MEL-5 > 100 µM | SN12C > 100 µM | SNB-19 > 100 µM | SNB-75 > 100 µM | SNB-78 > 100 µM | SR > 100 µM | SW-620 > 100 µM | TK-10 > 100 µM | U-251 > 100 µM | UACC-257 > 100 µM | UACC-62 > 100 µM | UO-31 > 100 µM
> 100 µM: HCT-15

NC(=O)C12CCC1C1CCCCC12N1CCOCC1 (stereo unspecified)
> 100 µM: HCT-15
inactive: 786-0 > 100 µM | A498 > 100 µM | A549 > 100 µM | ACHN > 100 µM | CAKI-1 > 100 µM | CCRF-CEM > 100 µM | DLD-1 > 100 µM | EKVX > 100 µM | HCC 2998 > 100 µM | HCT-116 > 100 µM | HL-60 > 100 µM | HOP-18 > 100 µM | HOP-62 > 100 µM | HOP-92 > 100 µM | HT-29 > 100 µM | IGROV-1 > 100 µM | K562 > 100 µM | KM-20L2 > 100 µM | KM12 > 100 µM | LOX IMVI > 100 µM | LXFL 529 > 100 µM | M14 > 100 µM | M19-MEL > 100 µM | MOLT-4 > 100 µM | Malme-3M > 100 µM | NCI-H23 > 100 µM | NCI-H460 > 100 µM | NCI-H522 > 100 µM | OVCAR-3 > 100 µM | OVCAR-4 > 100 µM | OVCAR-5 > 100 µM | OVCAR-8 > 100 µM | RPMI-8226 > 100 µM | RXF 393 > 100 µM | RXF 631 > 100 µM | SF-268 > 100 µM | SF-295 > 100 µM | SF-539 > 100 µM | SK-MEL-28 > 100 µM | SK-MEL-2 > 100 µM | SK-MEL-5 > 100 µM | SK-OV-3 > 100 µM | SN12C > 100 µM | SNB-19 > 100 µM | SNB-75 > 100 µM | SNB-78 > 100 µM | SR > 100 µM | SW-620 > 100 µM | TK-10 > 100 µM | U-251 > 100 µM | UACC-62 > 100 µM | UO-31 > 100 µM

Clc1cc(Cl)c2n[se]nc2c1
inactive: 786-0 > 100 µM | A498 > 100 µM | A549 > 100 µM | ACHN > 100 µM | CAKI-1 > 100 µM | CCRF-CEM > 100 µM | DMS-273 > 100 µM | EKVX > 100 µM | HCC 2998 > 100 µM | HCT-116 > 100 µM | HL-60 > 100 µM | HOP-18 > 100 µM | HOP-62 > 100 µM | HT-29 > 100 µM | IGROV-1 > 100 µM | K562 > 100 µM | KM-20L2 > 100 µM | KM12 > 100 µM | LOX IMVI 69.7 µM | M14 > 100 µM | M19-MEL > 100 µM | MOLT-4 > 100 µM | Malme-3M > 100 µM | NCI-H23 > 100 µM | NCI-H460 > 100 µM | NCI-H522 > 100 µM | OVCAR-4 > 100 µM | OVCAR-5 > 100 µM | OVCAR-8 > 100 µM | RPMI-8226 > 100 µM | RXF 393 > 100 µM | RXF 631 > 100 µM | SF-268 > 100 µM | SF-295 > 100 µM | SF-539 > 100 µM | SK-MEL-28 > 100 µM | SK-MEL-2 94 µM | SK-MEL-5 > 100 µM | SK-OV-3 > 100 µM | SN12C > 100 µM | SNB-19 > 100 µM | SNB-75 60.1 µM | SNB-78 > 100 µM | SR > 100 µM | SW-620 > 100 µM | TK-10 38.3 µM | U-251 > 100 µM | UACC-257 > 100 µM | UACC-62 > 100 µM | UO-31 > 100 µM
> 100 µM: HCT-15

O=C(OC1CCC(=C2SCCCS2)[C@H]1C1SCCCS1)c1ccccc1 (stereo partly specified)
> 100 µM: HCT-15
inactive: 786-0 > 100 µM | A498 > 100 µM | A549 > 100 µM | ACHN > 100 µM | CCRF-CEM > 100 µM | COLO 205 > 100 µM | DLD-1 > 100 µM | DMS-114 89.5 µM | DMS-273 > 100 µM | EKVX > 100 µM | HCC 2998 > 100 µM | HCT-116 88.3 µM | HL-60 52.7 µM | HOP-62 > 100 µM | HOP-92 16.9 µM | HT-29 > 100 µM | IGROV-1 > 100 µM | K562 75 µM | KM-20L2 > 100 µM | KM12 > 100 µM | LOX IMVI > 100 µM | LXFL 529 > 100 µM | M14 > 100 µM | M19-MEL > 100 µM | MOLT-4 > 100 µM | Malme-3M 94.6 µM | NCI-H226 30.5 µM | NCI-H23 > 100 µM | NCI-H460 > 100 µM | OVCAR-3 > 100 µM | OVCAR-4 84.5 µM | OVCAR-8 > 100 µM | RPMI-8226 86.3 µM | RXF 393 67.1 µM | RXF 631 > 100 µM | SF-295 > 100 µM | SF-539 > 100 µM | SK-MEL-2 > 100 µM | SK-OV-3 > 100 µM | SN12C > 100 µM | SNB-19 > 100 µM | SW-620 > 100 µM | TK-10 > 100 µM | U-251 > 100 µM | UACC-257 > 100 µM | UACC-62 45.4 µM | UO-31 24.5 µM
